These are literature values, as cited in patent publication EP1239867B1, “METHODS FOR TREATING AND PREVENTING DAMAGE TO MUCOSAL TISSUE” (University of Southern California, priority 1999, dated 2005).

The test system of this data set is AT2 receptor.

Square brackets hold non-standard residues; d marks the D form. Ends that are not written are not given here. Phe(4-NH2) = Nc1ccc(C[C@H](N)C(=O)O)cc1

With Asp-Arg-Val-Tyr-Ile-His-Pro-Phe [AII], the “affinity for AT2 than AT1 (times higher)” value (selectivity AT2 over AT1, Speth and Kim, BBRC 169:997-1006 (1990)) was 100 times.

On to “Asp-Arg-Val-Tyr-Ile-Xaa-Pro-Phe (DRVYI[Phe(4-NH2)]PF) [p-aminophenylalanine6-AII]”, for which, where the note is “experimental models of Catalioto et al. 1994, Bryson et al. 1992”, the “binding characteristics (in words)” value is recorded as “comparable to AT2 antagonists”.
